Measured values from patent US7276508B2, “Indole derivatives useful for the treatment of CNS disorders” (H. Lundbeck A/S, priority 2000, dated 2007).

What was measured:
[1] = molecular target: T1, D4 receptor (Homo sapiens, UniProt P21917); details: various in vitro efficacy assays; cited from earlier work
T1 sequence (P21917 1-419): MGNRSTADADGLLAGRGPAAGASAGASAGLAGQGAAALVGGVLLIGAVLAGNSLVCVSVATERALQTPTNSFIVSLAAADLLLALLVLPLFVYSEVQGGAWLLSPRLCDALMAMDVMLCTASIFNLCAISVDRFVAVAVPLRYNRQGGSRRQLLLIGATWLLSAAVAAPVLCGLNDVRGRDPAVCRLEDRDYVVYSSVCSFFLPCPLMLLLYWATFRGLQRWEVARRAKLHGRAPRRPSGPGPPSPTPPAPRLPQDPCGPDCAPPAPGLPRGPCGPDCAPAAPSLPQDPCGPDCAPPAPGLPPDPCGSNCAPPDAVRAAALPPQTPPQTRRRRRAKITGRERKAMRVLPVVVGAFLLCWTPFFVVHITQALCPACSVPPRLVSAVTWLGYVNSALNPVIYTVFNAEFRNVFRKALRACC

Question: With `O=C(CCCN1CCC(c2c[nH]c3ccc(Cl)cc23)CC1)N1CCc2ccccc2C1` [Compound 8, 5-Chloro-3-{1-[4-(3,4-dihydro-1H-isoquinolin-2-yl)-4-oxobutan-1-yl]piperidin-4-yl}-1H-indole] as the molecule, how does the melting point read?
Answer: The melting point was 172 to 175 °C.

Question: Which “Functional activity at D4 receptor (literature)” value [1] does the source give for `CC(C)Oc1cccnc1N(C)C1CCN(Cc2ccccc2)CC1` [Compound U-101958] here?
Answer: Its value is “partial D4 receptor agonists”.
